Data: US10626100B2, “Selective HDAC6 inhibitors” (The Trustees of Columbia University in the City of New York, priority 2013, dated 2020)
“Also recorded” adds a separate entry of the source.

Tests used:
[1] = system: HFS (human foreskin fibroblast) cells; assay: Cell growth and viability of HFS normal cells; type: cell-based
Method: (§1) FIG. 3. Cell growth of HFS (normal) and LNCaP (transformed) cells treated with compound 8 over 72 h.
(§2) FIG. 4. Cell viability of HFS (normal) and LNCaP (transformed) cells treated with compound 8 over 72 h.
(§3) Recombinant HDAC1 and HDAC6 are used to evaluate the selective inhibitory potency of each compound. Cell based assays: Normal cells (Human Foreskin Fibroblast cells), LNCaP (human prostate cancer cells), MCF-7 (human breast cancer cells, A549 (human adenocarcinoma of lung cells) and ARP-1 (human multiple myeloma cells) are used in these assays. Cells were cultured for up to 72 hr without and with the potential HDAC6-selective inhibitor. SAHA was used as a control. Cell number and cell viability were determined by enumeration. Proteins were extracted from cells and assayed for accumulation of acetylated tubulin and acetylated histones. All methods are described in Namdar et al., PNAS, 2010, 107:20003-8. In vivo animal studies: Potential HDAC6 inhibitor compounds are further assayed by administration to mice for up to 5 days with daily injections. Animals are sacrificed and tissues are analyzed for accumulation of acetylated tubulin and acetylated histones.
(§4) The effect of compound 8 on the cell growth and viability of normal (HFS, human foreskin fibroblast) and transformed (LNCaP, human prostate adenocarcinoma) cells cultured with 8, 16, 32 or 64 μM HPB for up to 72 h was evaluated.

HDAC1 = HDAC1 (Homo sapiens, UniProt Q13547); assay: Inhibition of recombinant HDAC1; type: biochemical; details: read-out: IC50 (nM) HCAC1
[2] = system: acetylated alpha-tubulin and acetylated histone H3 in LNCaP (human prostate cancer cells); assay: Accumulation of acetylated proteins in LNCaP cells (western blot); type: cell-based
Method: FIG. 2. Blot showing accumulation of acetylated alpha-tubulin and acetylated histone H3 in LNCaP (human prostate cancer cells) cultured with compounds 8 or 11. GADPH used as loading control.
FIG. 5. Western blots of acetylated alpha-tubulin (Acet-Tub) and acetylated histone H3 (Acet-H3) in HFS (normal) and LNCaP (transformed) cells treated with compound 8 at 8, 16, 32, and 64 μM for 24 h. Western blots of GAPDH and total histone H3 (Total-H3) are loading controls.
as §3

[3] = system: androgen-dependent CWR22 human prostate cancer xenograft; assay: CWR22 human prostate cancer xenograft in nude mice; type: in vivo
[4] = system: acetylated alpha-tubulin and acetylated histone H3 in spleen; assay: Acetylation of alpha-tubulin and histones in spleen of treated mice; type: in vivo
Method: FIG. 7. Immunoblots of spleens harvested at indicated times after the last injection. Immune-deficient mice were treated daily by 30 μL intraperitoneal injection with indicated doses of compound 8. DMSO is the vehicle control. Western blots of acetylated alpha-tubulin (Acet-Tub) and acetylated histone H3 (Acet-H3). Western blots of HSP90 and total histone H3 (Total-H3) are loading controls.
as §3
Toxicity of compound 8 in mice was determined. […] Mice were intraperitoneally injected daily for 5 days with 100, 200, or 300 mg/kg compound 8. […] The effects of compound 8 on the acetylation of alpha-tubulin and histones in the spleen isolated from mice treated with compound 8 were analyzed at three time points after the administration of the drug.

HDAC6 = biological target: T1, HDAC6 (Homo sapiens, UniProt Q9UBN7); assay: Inhibition of recombinant HDAC6
T1 sequence (Q9UBN7 1-1215): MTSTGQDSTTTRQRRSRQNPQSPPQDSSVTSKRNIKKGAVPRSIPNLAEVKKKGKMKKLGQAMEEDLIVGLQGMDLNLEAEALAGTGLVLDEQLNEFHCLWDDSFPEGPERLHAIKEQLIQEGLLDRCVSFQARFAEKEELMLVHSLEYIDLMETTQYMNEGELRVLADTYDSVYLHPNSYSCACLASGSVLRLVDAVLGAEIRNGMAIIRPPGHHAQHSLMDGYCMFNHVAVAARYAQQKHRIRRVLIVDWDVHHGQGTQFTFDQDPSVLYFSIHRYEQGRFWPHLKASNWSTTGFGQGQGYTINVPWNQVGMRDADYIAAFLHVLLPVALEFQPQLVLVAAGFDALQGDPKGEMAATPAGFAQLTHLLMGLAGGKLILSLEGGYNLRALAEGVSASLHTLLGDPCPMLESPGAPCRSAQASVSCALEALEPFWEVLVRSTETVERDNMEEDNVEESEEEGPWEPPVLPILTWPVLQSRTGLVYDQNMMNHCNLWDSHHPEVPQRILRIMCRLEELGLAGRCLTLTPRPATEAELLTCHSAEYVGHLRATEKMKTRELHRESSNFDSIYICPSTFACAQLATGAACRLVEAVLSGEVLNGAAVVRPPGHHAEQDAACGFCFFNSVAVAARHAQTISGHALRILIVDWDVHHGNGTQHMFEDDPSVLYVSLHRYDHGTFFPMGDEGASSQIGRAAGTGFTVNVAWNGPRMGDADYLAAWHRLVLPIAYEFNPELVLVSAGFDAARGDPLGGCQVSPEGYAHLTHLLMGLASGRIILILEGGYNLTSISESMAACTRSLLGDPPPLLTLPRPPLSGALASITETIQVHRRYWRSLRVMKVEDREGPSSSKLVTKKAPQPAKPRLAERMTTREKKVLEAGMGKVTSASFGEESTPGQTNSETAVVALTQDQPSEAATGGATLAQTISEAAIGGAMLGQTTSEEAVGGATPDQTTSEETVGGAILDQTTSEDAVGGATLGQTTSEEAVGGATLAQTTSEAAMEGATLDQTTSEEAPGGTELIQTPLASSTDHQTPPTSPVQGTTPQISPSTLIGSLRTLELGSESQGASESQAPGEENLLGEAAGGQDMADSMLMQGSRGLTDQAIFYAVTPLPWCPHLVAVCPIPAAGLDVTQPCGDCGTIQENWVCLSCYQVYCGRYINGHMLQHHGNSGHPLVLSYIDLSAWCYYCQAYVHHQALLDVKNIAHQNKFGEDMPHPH

[5] = system: LNCaP (human prostate adenocarcinoma) cells; assay: Cell growth and viability of LNCaP cells; type: cell-based
Method: as §1, §2, §3, §4

[6] = LNCaP cells, 8 μM to 64 μM, 24 h, FIG. 5
[7] = transformed cells, concentrations as high as 16 μM
[8] = 21 days, daily 300 mg/kg compound 8 or weekly 3 mg/kg etoposide alone

HDAC1, sequence (Q13547 whole entry): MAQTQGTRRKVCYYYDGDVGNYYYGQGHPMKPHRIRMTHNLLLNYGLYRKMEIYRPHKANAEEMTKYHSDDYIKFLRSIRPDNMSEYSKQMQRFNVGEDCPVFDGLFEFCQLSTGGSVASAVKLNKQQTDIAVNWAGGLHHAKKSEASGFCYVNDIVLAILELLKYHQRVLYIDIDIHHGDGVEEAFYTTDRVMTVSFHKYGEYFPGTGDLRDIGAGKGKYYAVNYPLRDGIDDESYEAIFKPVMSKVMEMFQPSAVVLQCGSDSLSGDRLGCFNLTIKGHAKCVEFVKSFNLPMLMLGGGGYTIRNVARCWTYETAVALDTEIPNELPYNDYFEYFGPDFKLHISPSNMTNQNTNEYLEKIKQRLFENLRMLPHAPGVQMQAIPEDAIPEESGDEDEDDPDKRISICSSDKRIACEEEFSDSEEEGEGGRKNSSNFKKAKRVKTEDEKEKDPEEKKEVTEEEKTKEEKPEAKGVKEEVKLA

O=C(NO)c1ccc(CN(CCO)C(=O)Cc2ccccc2)cc1 [Compound 8, N-hydroxy-4-((N-(2-hydroxyethyl)-2-phenylacetamido)methyl) benzamide]
cell growth ([1]; HFS, 8, 16, 32 or 64 μM, up to 72 h, FIG. 3): inhibited cell growth of normal and transformed cells in a concentration dependent manner | cell death / cell viability ([1]; HFS, 8, 16, 32 or 64 μM, up to 72 h, FIG. 4): did not induce cell death of normal or transformed cells | normal cell death ([1]; concentrations ≤16 μM): do not induce normal cell death | IC50 (HDAC1): 1130 nM | accumulation of acetylated alpha-tubulin [2, 6]: caused accumulation of acetylated alpha-tubulin | accumulation of acetylated histones [2, 6]: not of acetylated histones | accumulation of acetylated histones (H3) ([2]; LNCaP cells, FIG. 2): did not cause accumulation of actylated histones; also recorded: without induction of H3 acetylation | accumulation of acetylated α-tubulin ([2]; LNCaP cells, FIG. 2): caused the accumulation of acetylated α-tubulin; also recorded: significant levels of tubulin acylation were present | accumulation of acetylated alpha-tubulin [2, 7]: selectively induced accumulation of acetylated alpha-tubulin and acetylated PRX | accumulation of acetylated histones [2, 7]: not of acetylated histones | growth of established CWR22 tumors, single agent [3, 8]: no significant suppression of the growth | weight loss, single agent [3, 8]: no weight loss | growth of established CWR22 tumors, combination with etoposide ([3]; daily compound 8 and weekly etoposide, versus vehicle-treated control animals): causes suppression of the growth of established CWR22 tumors; also recorded: significantly enhances the anti-tumor effect of etoposide | accumulation of acetylated tubulin in the spleen ([4]; 1.5 h after injection, FIG. 7): increased accumulation of acetylated tubulin | accumulation of acetylated tubulin in the spleen ([4]; 5 h after injection): reduced to the level seen in vehicle-treated controls | accumulation of acetylated histones in the spleen ([4]; FIG. 7): no detectable accumulation of acetylated histones | potency as inhibitor of HDAC6 compared with SAHA (HDAC6): one hundred fold more potent | IC50 (HDAC6; read-out: IC50 (nM) HCAC6, recombinant HDAC6): 31 nM | cell growth (cell number) ([5]; LNCaP, 8, 16, 32 or 64 μM, up to 72 h, FIG. 3): inhibited cell growth of normal and transformed cells in a concentration dependent manner; also recorded: inhibited cell number | cell death / cell viability ([5]; LNCaP, 8, 16, 32 or 64 μM, up to 72 h, FIG. 4): did not induce cell death of normal or transformed cells; also recorded: does not decrease cell viability | death of LNCaP cells ([5]; concentrations as high as 32 μM): no detectable death of LNCaP cells
